# Laboratory results reported in paper PMC7822874, “Chemoprotective antimalarials identified through quantitative high-throughput screening of Plasmodium blood and liver stage parasites” (Scientific Reports, 2021).
# Like-named read-outs stand apart in the source and are kept apart here.
# Tests used:
# [1] = test system: P. berghei-ANKA-GFP-LucCON liver stage parasites in HepG2-A16-CD81EGFP cells; test: P. berghei liver stage Pb-Luc assay, Method 1 (UCSD, 1536-well); format: cell-based, Plasmodium berghei; conditions: for activity at 1 µM / activity at 3 µM: 48 h, average of 2 wells on a 1536 well plate; for activity at 1 µM: 1 uM (compounds provided at 10 mM); for activity at 3 µM: 3 uM (compounds provided at 10 mM)
# [2] = test system: Plasmodium falciparum Dd2 asexual blood stage parasites; test: microbe, parasite or virus in culture; design: species or system Plasmodium falciparum Dd2 in human erythrocytes; single determination (one 11-point concentration-response curve); conditions: Plasmodium falciparum, DD2, Erythrocyte, 72 h
# in vitro = conditions: human
# [3] = Plasmodium berghei, column 11, read-out: Pb-Luc (P. berghei liver stage), % of control, lower concentration, first repeat
# [4] = Plasmodium berghei, column 12, read-out: Pb-Luc (P. berghei liver stage), % of control, lower concentration, second repeat
# [5] = Plasmodium berghei, column 8, read-out: Pb-Luc (P. berghei liver stage), % of control, higher concentration, first repeat
# [6] = Plasmodium berghei, column 9, read-out: Pb-Luc (P. berghei liver stage), % of control, higher concentration, second repeat
# [7] = HepG2-A16-CD81EGFP cells, uninfected
smiles,measurement,setting,value
CCOC(=O)c1nnn(-c2nonc2N)c1-c1ccc(C)cc1 [MLS000519435-01],activity at 1 µM,[1]; [3],122%
same,activity at 1 µM,[1]; [4],101%
same,activity at 3 µM,[1]; [5],135%
same,activity at 3 µM,[1]; [6],119%
same,AC50,[2]; read-out: AC50,5310 nM
Cc1nc2c(n1C1CCCCC1)C(=O)c1ccccc1C2=O [MLS000564113-01],activity at 1 µM,[1]; [3],95%
same,activity at 1 µM,[1]; [4],107%
same,activity at 3 µM,[1]; [5],85%
same,activity at 3 µM,[1]; [6],94%
O=C(C[n+]1cc(-c2ccccc2)n2c1CCC2)c1cccs1 [MLS001003812-01],"viability at 48 h, 1 µM",in vitro; [7],94%
same,"viability at 48 h, 3 µM",in vitro; [7],86%
CCCN(CCC)C(=O)Cn1ccc(=N)c2ccccc21 [MLS000047676-01],"viability at 48 h, 1 µM",in vitro; [7],95%
same,"viability at 48 h, 3 µM",in vitro; [7],87%
C=CCNc1nc(N(c2ccccc2)c2ccccc2)nc(-n2ccnc2)n1 [MLS000045718-01],viability at 66 h,in vitro; [7],107%
O=C(Cc1c[nH]c2ncc(-c3ccc(Cl)cc3)cc12)NCc1cccnc1 [NCGC00412438-01],Max Resp (signal direction of the dose response),"[1]; Method 1, Decrease = decreasing P. berghei viability with dose, Increase = increasing signal, Inactive = no dose response",Decrease
same,AC50,"[1]; Method 1, Hill fit, 50% of maximum activity response, read-out: AC50",2000 nM
same,Log AC50 (M),"[1]; Method 1, log10 of molar AC50 from Hill fit",-5.700 M
same,AC50,"[1]; Plasmodium berghei, Method 1, Hill fit, 50% of maximum activity response, read-out: AC50",1260 nM
same,AC50,"[1]; Plasmodium berghei, Method 1, log10 of molar AC50 from Hill fit, read-out: Log AC50 (converted)",1260 nM
same,AC50,[2]; read-out: AC50,1720 nM
CCc1cc(C(=O)c2ccccc2)c(N)s1 [MLS001211275-01],viability at 66 h,in vitro; [7],107%
CCOC(=O)Cn1c2c(c(=N)c3c1CCC3)CCCC2 [MLS000702567-01],viability at 66 h,in vitro; [7],106%
COc1ccc(C2CC(c3cccs3)=NN2C(=O)c2ccco2)cc1OC (centres unmarked) [MLS000769739-01],viability at 66 h,in vitro; [7],101%
NS(=O)(=O)c1cccc(NC(=O)CSc2nn(-c3ccccc3)c(=S)s2)c1 [MLS000339501-01],"viability at 48 h, 1 µM",in vitro; [7],105%
same,"viability at 48 h, 3 µM",in vitro; [7],100%
O=S(=O)(c1ccc(F)cc1)N1CCN(/C(S)=N/Cc2ccco2)CC1 [MLS000409296-01],viability at 66 h,in vitro; [7],103%
CCOC(=O)N1CCc2c(sc3nc4n(c(=O)c23)N=C(c2ccc(OC)cc2)CS4)C1 [MLS000859689-01],"viability at 48 h, 1 µM",in vitro; [7],99%
same,"viability at 48 h, 3 µM",in vitro; [7],96%
Cc1ccc2c(c1)-c1c(ssc1=S)C(C)(C)N2C(=O)c1ccco1 [MLS000525939-01],"viability at 48 h, 1 µM",in vitro; [7],100%
same,"viability at 48 h, 3 µM",in vitro; [7],100%
CCCCN(C)[S+](=O)([O-])c1ccc(C(=O)Nc2ccc(-c3nc4ccc(C)cc4s3)cc2)cc1 [NCGC00134689-01],viability at 66 h,in vitro; [7],103%
Cc1cccc(CSc2nn3c(=O)c(C)nnc3s2)c1 [MLS000724933-01],"viability at 48 h, 1 µM",in vitro; [7],115%
same,"viability at 48 h, 3 µM",in vitro; [7],100%
CCOC(=O)C1=C(C)NC2=C(C(=O)CCC2)C1c1cn(Cc2ccc(Cl)cc2Cl)nc1-c1ccccc1 (centres unmarked) [MLS000324811-01],"viability at 48 h, 1 µM",in vitro; [7],106%
same,"viability at 48 h, 3 µM",in vitro; [7],96%
COC(=O)c1cc2sc(Cl)cc2n1CC(=O)Nc1ccc(OC)c(OC)c1OC [MLS000093488-01],viability at 48 h,in vitro; [7],101%
same,"viability at 48 h, 1 µM",in vitro; [7],101%
CCOc1cc(C2NCc3ccccc3-n3cccc32)ccc1O (centres unmarked) [MLS000047991-01],"viability at 48 h, 1 µM",in vitro,97%
same,"viability at 48 h, 3 µM",in vitro,95%
CN(C(=O)c1ccc(NC(=O)Cc2cccc(NC(=O)C3CCCN(C(=O)CCc4ccccc4)C3)c2)cc1)C1CCCC1 (centres unmarked) [MLS002402746-01],viability at 48 h,in vitro; [7],104%
same,"viability at 48 h, 1 µM",in vitro; [7],104%
Oc1c(Br)cc(Br)cc1CN1CCN(Cc2ccccc2)CC1 [MLS000530313-01],activity at 1 µM,[1]; [3],129%
same,activity at 1 µM,[1]; [4],112%
same,activity at 3 µM,[1]; [5],102%
same,activity at 3 µM,[1]; [6],112%
same,AC50,[2]; read-out: AC50,1060 nM
Cc1ccc(-n2nc3c(Cl)nnc(C)c3c2C)cc1 [MLS000698458-01],"viability at 48 h, 1 µM",in vitro; [7],105%
same,"viability at 48 h, 3 µM",in vitro; [7],104%
CC(C)c1ccc(O)c(CN2CCN(c3ccccc3)CC2)c1 [MLS000084718-01],activity at 1 µM,[1]; [3],105%
same,activity at 1 µM,[1]; [4],80%
same,activity at 3 µM,[1]; [5],97%
same,activity at 3 µM,[1]; [6],96%
same,AC50,[2],1330 nM
Cc1cccc(NC(=O)c2cc(S(=O)(=O)N(C)c3ccc(F)cc3)ccc2Cl)n1 [MLS001160863-01],"viability at 48 h, 1 µM",in vitro; [7],97%
same,"viability at 48 h, 3 µM",in vitro; [7],92%
COc1ccc2cc3cc(C(=O)NCCC(C)C)oc3nc2c1 [MLS001199461-01],"viability at 48 h, 1 µM",in vitro; [7],101%
same,"viability at 48 h, 3 µM",in vitro; [7],101%
Cc1ccc(-c2nc(CN3CCCCC3)cc(CN3CCCCC3)c2O)cc1 [MLS000713293-01],viability at 48 h,in vitro; [7],101%
same,"viability at 48 h, 1 µM",in vitro; [7],101%
COc1ccc(CCn2c(=N)c(C(=O)NC3CCCCC3)cc3c(=O)n4ccccc4nc32)cc1 [MLS001146200-01],"viability at 48 h, 1 µM",in vitro; [7],102%
same,"viability at 48 h, 3 µM",in vitro; [7],98%
Cc1n[nH]c(=S)n(/N=C/c2cccs2)c1=O [MLS000780118-01],viability at 66 h,in vitro; [7],98.7%
Cc1cccc(Cl)c1/N=C(\S)N1CCN(c2ccc([N+](=O)[O-])cn2)CC1 [MLS000833563-01],"viability at 48 h, 1 µM",in vitro; [7],95%
same,"viability at 48 h, 3 µM",in vitro; [7],93%
COc1cccc(OCCn2cc(C(=O)c3ccco3)c3ccccc32)c1 [MLS000050800-01],activity at 1 µM,[1]; [3],134%
same,activity at 1 µM,[1]; [4],132%
same,activity at 3 µM,[1]; [5],134%
same,activity at 3 µM,[1]; [6],113%
CCSc1nnc(SCC(=O)c2c(N)n(C)c(=O)n(C)c2=O)s1 [MLS002169255-01],"viability at 48 h, 1 µM",in vitro; [7],93%
same,"viability at 48 h, 3 µM",in vitro; [7],88%
CCOc1ccc(/C=C/C(=O)Nc2ccc3nc(N(CC)CC)cc(C)c3c2)cc1OC [NCGC00104284-01],AC50,[2]; read-out: AC50,1880 nM
Cc1cc(N(C)Cc2ccccc2)nc2cc(O)ccc12 [MLS001199318-01],AC50,[2]; read-out: AC50,2370 nM
CCCCNC(=O)c1onc(CSc2nc3ccccc3[nH]2)c1C(=O)NCCCC [MLS000561096-01],AC50,[2]; read-out: AC50,5310 nM
COCCN1Cc2ccc(NCC(C)C)nc2C(C)(C(=O)Nc2ccncc2)C1 (centres unmarked) [NCGC00414482-01],AC50,[2]; read-out: AC50,21700 nM
CN1CCCC(CN(CCc2ccccc2)C(=O)c2cc(C#N)cn2C)C1 (centres unmarked) [NCGC00443707-01],AC50,[2]; read-out: AC50,9440 nM
O=C(Cc1ccc2c(c1)OCO2)N1CCOCC2(CN(Cc3ccccc3)C2)C1 [NCGC00418996-01],AC50,[2]; read-out: AC50,6850 nM
COc1ccc(Nc2c(-c3cc(Br)ccc3O)nc3ncccn23)cc1OC [NCGC00107676-01],AC50,[2]; read-out: AC50,4730 nM
O=c1nc(C2CCCN(Cc3ccccn3)C2)[nH]n1-c1ccc(Cl)cc1 (centres unmarked) [NCGC00477746-01],AC50,[2]; read-out: AC50,2370 nM
Cc1ccc(NC(=O)Cn2c(=O)n(-c3ccc(C)cc3)c(=O)c3ccc(C(=O)NCc4ccccc4Cl)cc32)cc1 [NCGC00108700-01],AC50,[2]; read-out: AC50,5310 nM
CCCCCNc1nc2c(-c3ccccc3)nnn2c2ccccc12 [NCGC00111529-01],AC50,[2]; read-out: AC50,11900 nM
CCOC(=O)c1nnn(-c2nonc2N)c1-c1ccc(Br)cc1 [MLS000727795-01],AC50,[2]; read-out: AC50,2660 nM
CN1C(=O)C2(c3ccccc31)N(C)CC(c1ccccc1)C21SC(=S)N(Cc2ccco2)C1=O (centres unmarked) [MLS000559203-01],AC50,[2]; read-out: AC50,13300 nM
COc1ccc(-c2cc(=O)c3cc(C)ccc3[nH]2)cc1 [MLS000517811-01],AC50,[2]; read-out: AC50,10600 nM
CC(C)CN1C(=O)c2ccccc2C(C(=O)Nc2nccs2)C12CCCC2 (centres unmarked) [NCGC00423343-01],AC50,[2]; read-out: AC50,8410 nM
O=C(NC1CC1)c1ccccc1OCC1CCCN(Cc2cccc3[nH]ccc23)C1 (centres unmarked) [NCGC00427156-01],AC50,[2]; read-out: AC50,5960 nM
CCC[S+](=O)([O-])c1nc([S+](=O)([O-])c2ccc(C)cc2)c(NCCCOC(C)C)s1 [NCGC00113582-01],AC50,[2]; read-out: AC50,2110 nM
O=[N+]([O-])c1ccc(N2CCN(/C(S)=N/C3CCCCC3)CC2)cc1 [MLS000574247-01],AC50,[2]; read-out: AC50,1880 nM
O=C1NC(=O)/C(=C\c2ccc(N3CCOCC3)o2)N1 [MLS000724369-01],AC50,[2]; read-out: AC50,9440 nM
Cc1ccc(/C=N/NC(=O)c2nnn(-c3nonc3N)c2-c2ccc3c(c2)OCO3)s1 [MLS001142659-01],AC50,[2]; read-out: AC50,841 nM
Cc1noc(C)c1-c1cc2c(cc(-c3ccccc3)n2C)c(-c2cccnc2)n1 [NCGC00417168-01],AC50,[2]; read-out: AC50,10900 nM
COc1ccc(NC(=O)c2sc3nc4c(c(-c5ccc(OC)cc5)c3c2N)C(=O)CC(C)(C)C4)cc1 [NCGC00100714-01],AC50,[2]; read-out: AC50,1880 nM
CN(C)CCN1C(=O)c2oc3ccc(Cl)cc3c(=O)c2C1c1cccc(Br)c1 (centres unmarked) [MLS000862131-01],AC50,[2]; read-out: AC50,531 nM
